Reference: patent publication US20250332109A1 (Veradermics, Incorporated, priority 2024, published 2025)
Like-named read-outs stand apart in the source and are kept apart here.

How the values were obtained:
patients = conditions: chronic therapy; initially, then recovers; cited from earlier work
[1] = tested on: person with androgenetic alopecia; conditions: 1.25 mg QID
[2] = tested on: person with androgenetic alopecia; experiment: Case study: person with androgenetic alopecia and hypertension treated with oral minoxidil; conditions: 0.625 mg four times a day
[3] = primarily by conjugation with glucuronic acid; cited from earlier work
rabbits = conditions: oral, 5 times the maximum recommended oral antihypertensive human dose; cited from earlier work
hypertensive patients = conditions: intravenous infusion; cited from earlier work
subjects = conditions: topical foam 5% versus vehicle topical foam; 404 subjects enrolled; cited from earlier work
male adults with AGA = conditions: 5 mg oral at bedtime; 24 week follow up; cited from earlier work
[4] = cited from earlier work
mice = conditions: dietary, up to 2 years, 10, 25, and 63 mg/kg/day; cited from earlier work

Nc1cc(N2CCCCC2)nc(N)[n+]1[O-] [minoxidil]
temporary decrease in hematocrit, hemoglobin, and erythrocyte count (hemodilution) (patients): approximately 7%
unwanted hair growth or other adverse events, including cardiac effects [1]: No unwanted hair growth or other adverse events
reductions in blood pressure [2]: did not experience significant reductions in blood pressure
unwanted hair growth or other adverse events [2]: No unwanted hair growth or other adverse events
fraction of oral dose metabolized [3]: About 90%
fetal resorption (rabbits): increased fetal resorption
steady state plasma concentration associated with significant (>5 beats per minute) changes in heart rate (hypertensive patients): above 20 ng/mL
SAEs reported in treated subjects (subjects): Six
subjects reporting edema (male adults with AGA): 2.9%
subjects reporting vertigo (male adults with AGA): 2.9%
dose dependence of PK ([4]; 2.5 mg, 5 mg, 10 mg oral, PK and urinary excretion data): dose-independent PK
duration plasma concentrations above 20 ng/mL ([4]; 5 mg dose level): around 1 h
duration plasma concentrations above 20 ng/mL ([4]; 10 mg dose level): around 2 h
observed half-life ([4]; immediate release formulation, healthy subjects): around 1 h
effect on blood pressure ([4]; normotensive subjects, 2.5 mg, 5 mg, or 10 mg oral): little effect on blood pressure
incidence of malignant lymphomas in females (mice): increased incidence of malignant lymphomas
